Ends that are not written are not given here. Peptide text beside a SMILES is read from it.
Columns and labels:
CXCL6 = molecular target: T1, CXCL6 (Homo sapiens, UniProt P80162); assay: cell-based; conditions: HD2 mutant peptides 10 μM, chemokine at EC80
T1 sequence (P80162 38-114): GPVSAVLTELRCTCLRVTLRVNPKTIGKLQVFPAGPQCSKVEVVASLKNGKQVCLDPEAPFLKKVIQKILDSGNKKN
Protocol: FIG. 11. […] Technical replicates are shown as individual data points. […] The response curve (solid blue line) and its 95% confidence interval (grey ribbon) were calculated using a 4-parameter log-logistic plot.
(§1) The J:CXCR1 cell line was generated by transfecting Jurkat cells by electroporation with PvuI-linearized plasmid D1398 and selecting with blasticidin (Sigma-Aldrich, Cat #203350, […]). […] J:CXCR1 cells were cultured in RPMI-1640 media (Gibco), supplemented with 10% FBS and 5 mM L-Glutamine with blasticidin. For J:CXCR1 migration assays, 300,000 cells/well were added to the top chamber of a 3 μm Transwell insert (Corning) in 50 μL of migration media (RPMI-1640, 0.5% FBS, 4 mM L-Glutamine, 0.05% DMSO). The bottom chamber contained 150 μL of chemokine, with or without peptide. Cells were migrated at 37° C. in 5% CO2 for 4 hours. The plate was incubated on a shaking platform for 10 minutes, 800 rpm, at 37° C., and 150 μL from the bottom of the plate transferred into a U-bottom plate containing 50 μL of migration media. Cell counts were determined by Attune NxT Flow Cytometer Plate Reader (ThermoFisher), based on cell size parameters FSC-H/SSC-H. Experiments were performed in 3 technical and 3 biological replicates. THP-1 migration assays were carried out using methods known in the art. Activated T-cell assays were carried out using methods known in the art, with the following modifications in the isolation process. Peripheral blood cells were obtained from leucocyte cones (NHS Blood Transfusion Services), following which, T-cells were isolated using two rounds of human CD8+ T-cell isolation kit (480011, BioLegend). At day 10 after activation, T-cells were frozen at 20 E6 cells/ml in TexMACS medium supplemented with 10% DMSO (D2650, Sigma) in liquid nitrogen. Prior to use, activated T-cells were recovered for 24 hours in TexMACs medium at 0.3 E6 cells/ml and incubated at 37° C. in 5% CO2. Chemokine sources are described in Supplementary information Table 3. Statistical significances between control experimental groups was evaluated using Dunnett's test. IC50 experiments were performed at the EC80 dose of chemokine. EC80 was calculated by fitting a chemokine dose-response curve with 3 parameters (fixing the top to 100%). IC50 was calculated by fitting an inhibitor response curve with 4 parameters.
(§2) Migration assays using THP1, activated T-cell (ATC) and J:CXCR1 (Jurkat cells stably transfected with CXCR1 receptor) were performed as described previously. IC50 experiments were performed at the EC80 dose of chemokine. EC80 was calculated by fitting a chemokine dose-response curve with 3 parameters (fixing the top to 100%). IC50 was calculated by fitting an inhibitor response curve with 4 parameters. R-packages used were ggupset_0.3.0, DescTools_0.99.44, and drc_3.0-1.

CCL15 = molecular target: T2, CCL15 (Homo sapiens, UniProt Q16663); assay: CCL15-induced cell migration assay; type: cell-based; conditions: HD2 mutant peptides 10 μM, chemokine at EC80
T2 sequence (Q16663 22-113): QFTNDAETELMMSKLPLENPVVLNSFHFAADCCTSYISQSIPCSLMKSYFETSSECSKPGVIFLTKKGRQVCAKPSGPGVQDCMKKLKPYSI
Protocol: FIGS. 24 and 25. Effect of exemplar mutant HD2 peptides on chemotaxis. Box-whisker plots showing the effect of the exemplar mutant HD2 peptides on cell migration induced by indicated human chemokines. All experiments were performed as at least three technical and between one to three biological replicates, and individual data points are indicated. […] Chemokine and cell type names are indicated. HD2SCR is a scrambled version of HD2 used as negative control. All peptides were at 10 μM final concentration and chemokines at EC80 doses. Statistically significant differences (compared to control, coloured blue), using Dunnett's test with correction for multiple comparisons, are indicated by asterisks: ****=P≤0.0001, ***=P≤0.001, **=P≤0.01, *=P≤0.05.
The J:CXCR1 cell line was generated by transfecting Jurkat cells by electroporation with PvuI-linearized plasmid D1398 and selecting with blasticidin (Sigma-Aldrich, Cat #203350, […]). […] J:CXCR1 cells were cultured in RPMI-1640 media (Gibco), supplemented with 10% FBS and 5 mM L-Glutamine with blasticidin. For J:CXCR1 migration assays, 300,000 cells/well were added to the top chamber of a 3 μm Transwell insert (Corning) in 50 μL of migration media (RPMI-1640, 0.5% FBS, 4 mM L-Glutamine, 0.05% DMSO). […] Cell counts were determined by Attune NxT Flow Cytometer Plate Reader (ThermoFisher), based on cell size parameters FSC-H/SSC-H. Experiments were performed in 3 technical and 3 biological replicates. […] Statistical significances between control experimental groups was evaluated using Dunnett's test. […] EC80 was calculated by fitting a chemokine dose-response curve with 3 parameters (fixing the top to 100%). IC50 was calculated by fitting an inhibitor response curve with 4 parameters.
as §2, with “IC50 experiments were performed at the EC80 dose of chemokine.” left out, “R-packages used were ggupset_0.3.0, DescTools_0.99.44, and drc_3.0-1.” left out

CXCL12 = CXCL12 (Homo sapiens, UniProt P48061); type: cell-based; design: activity in inhibiting migration of activated T cells in comparison to HD2_Y5W: dose or concentration left out as unconfirmed; conditions: chemokine at EC80; for chemotaxis compared with the parental HD2 peptide: HD2 mutant peptides 10 μM
Protocol: FIG. 22. Effect of selected combinatorial HD2 mutations on chemotaxis. FIG. 22A. Box-whisker plot showing the effect of the exemplar single and combinatorically mutant (CM) HD2 peptides on activated-T cell (ATC) migration induced by CXCL12. All experiments were performed as at least three technical and three biological replicates, and individual data points are indicated. […] HD2SCR is a scrambled version of HD2. […] Statistically significant differences (compared to control, HD2_Y5W, coloured blue), using Dunnett's test with correction for multiple comparisons, are indicated by asterisks: ****=P≤0.0001, ***=P≤0.001, **=P≤0.01, *=P≤0.05. All comparisons were made to HD2_Y5W, as it is present in CM539, CM452, and CM304. […] Technical replicates are shown as individual data points. […] The response curve (solid blue line) and its 95% confidence interval (grey ribbon) were calculated using a 4-parameter log-logistic plot. The agonist and estimated IC50 (dotted green line) are indicated.
as §1, §2

Sequence of CXCL12 (P48061 22-89 limits assumed): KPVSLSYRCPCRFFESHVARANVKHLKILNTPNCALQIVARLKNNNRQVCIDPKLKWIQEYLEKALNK

Molecule: EEDDYWAYAPLTCYFT [HD2_W6]
- chemotaxis compared with the parental HD2 peptide (CXCL6): significant reduction in chemotaxis
- chemotaxis compared with the parental HD2 peptide (CCL15): significant reduction in chemotaxis

Molecule: EEDDYTAYWPLTCYFT [A9W]
- chemotaxis compared with the parental HD2 peptide (CXCL12): significant reduction in chemotaxis
- chemotaxis compared with the parental HD2 peptide (CXCL6): significant reduction in chemotaxis
- chemotaxis compared with the parental HD2 peptide (CCL15): significant reduction in chemotaxis

Molecule: EEDDWTAYAPLTCYFT-NH2 [HD2_W5, EEDDWTAYAPLTCYFT]
- chemotaxis compared with the parental HD2 peptide (CXCL12): significant reduction in chemotaxis

Molecule: CC(C)C[C@H](NC(=O)[C@@H]1CCCN1C(=O)[C@H](C)NC(=O)[C@H](Cc1ccc(O)cc1)NC(=O)[C@H](C)NC(=O)[C@@H](NC(=O)[C@H](Cc1ccc(O)cc1)NC(=O)[C@H](CC(=O)O)NC(=O)[C@H](CC(=O)O)NC(=O)[C@H](CCC(=O)O)NC(=O)[C@@H](N)CCC(=O)O)[C@@H](C)O)C(=O)N[C@H](C(=O)N[C@@H](CS)C(=O)N[C@@H](Cc1ccc(O)cc1)C(=O)N[C@@H](Cc1ccccc1)C(=O)N[C@@H](CS)C(N)=O)[C@@H](C)O [HD2_C16, EEDDYTAYAPLTCYFC] (H-EEDDYTAYAPLTCYFC-NH2; N-terminus assumed)
- chemotaxis compared with the parental HD2 peptide (CXCL12): significant reduction in chemotaxis
- activity in inhibiting migration of activated T cells in comparison to HD2_Y5W (CXCL12; peptides final concentration as printed): potent inhibitor
- chemotaxis compared with the parental HD2 peptide (CXCL6): significant reduction in chemotaxis
- chemotaxis compared with the parental HD2 peptide (CCL15): significant reduction in chemotaxis
